Assay results reported in patent publication US20230416248A1, “COMPOUNDS AND USES THEREOF” (Foghorn Therapeutics Inc., priority 2020, published 2023).

Legend:
parental MP41 cells = test: 7-day growth inhibition assay, parental cells (Example 14); format: cell-based; settings: FIG. 7B, 7-day assay
Experimental: (§1) Procedure: MP41 uveal melanoma cells were made resistant to the PKC inhibitor (LXS196; MedChemExpress), by long-term culture in growth media (see Table 6) containing increasing concentrations of the compound, up to 1 micromolar. After 3 months, sensitivity of the parental MP41 cells and the PKC inhibitor (PKCi)-resistant cells to the PKC inhibitor (LXS196) or the BRG1/BRM ATPase inhibitor (Compound B) was tested in a 7-day growth inhibition assay as described above in Example 9.

[1] = tested on: Uveal melanoma cell lines (92-1, MP41, MP38, MP46) and Non-small cell lung cancer cells (NCIH1299); test: 3-day cell growth, Cell-titer glow (Example 12); format: cell-based; settings: FIG. 5, 3 days, 0 to 10 micromolar
Experimental: Procedure: Uveal melanoma cell lines (92-1, MP41, MP38, MP46) and Non-small cell lung cancer cells (NCIH1299) were plated into 96 well plates with growth media (see Table 6). BRG1/BRM ATPase inhibitor, compound 67, was dissolved in DMSO and added to the cells in a concentration gradient from 0 to 10 micromolar at the time of plating. Cells were incubated at 37° C. for 3 days. After three days of treatment, cell growth was measured with Cell-titer glow (Promega), and luminescence was read on an Envision plate reader (Perkin Elmer).

[2] = tested on: Uveal melanoma cell lines, 92-1 or MP41; test: 3-day growth inhibition compared with clinical PKC and MEK inhibitors, Compound B (Example 13); format: cell-based; settings: FIG. 6A and 6B
Experimental: Procedure: Uveal melanoma cell lines, 92-1 or MP41, were plated in 96 well plates in the presence of growth media (see Table 6). BAF ATPase inhibitor (Compound B), PKC inhibitor (LXS196; MedChemExpress), and MEK Inhibitor (Selumetinib; Selleck Chemicals) were dissolved in DMSO and added to the cells in a concentration gradient from 0 to 10 micromolar at the time of plating. Cells were incubated at 37° C. for 3 days. After three days of treatment, cell growth was measured with Cell-titer glow (Promega), and luminescence was read on an Envision plate reader (Perkin Elmer).

[3] = tested on: PKC inhibitor (PKCi)-resistant MP41 uveal melanoma cells; test: 7-day growth inhibition assay, PKC inhibitor-resistant cells (Example 14); format: cell-based
Experimental: as §1

[4] = Body weight and tolerability in mice engrafted with 92-1 tumors (Example 16); format: in vivo; settings: all treatments, once daily oral gavage, 3 weeks, FIG. 8C
Experimental: Procedure: Nude mice (Envigo) were engrafted subcutaneously in the axillary region with 5×10^6 92-1 uveal melanoma cells in 50% Matrigel. Tumors were grown to a mean of ˜200 mm^3, at which point mice were grouped and dosing was initiated. Mice were dosed once daily by oral gavage with vehicle (20% 2-Hydroxypropyl-[…]) or increasing doses of Compound C. Tumor volumes and body weights were measured over the course of 3 weeks, and doses were adjusted by body weight to achieve the proper dose in terms of mg/kg. At this time, animals were sacrificed, and tumors were dissected and imaged.

[5] = tested on: Uveal melanoma cell lines, 92-1 or MP41; test: 3-day growth inhibition compared with clinical PKC and MEK inhibitors, Compound A (Example 8); format: cell-based; settings: FIG. 2A and 2B
Experimental: Procedure: Uveal melanoma cell lines, 92-1 or MP41, were plated in 96 well plates in the presence of growth media (see Table 5). […] Cells were incubated at 37 degrees Celsius for 3 days. After three days of treatment, cell growth was measured with Cell-titer glow (Promega), and luminescence was read on an Envision plate reader (Perkin Elmer).

Structure (SMILES): CSCC[C@H](NC(=O)c1ccn(S(C)(=O)=O)c1)C(=O)Nc1nc(-c2cccc(-c3ccncc3)c2)cs1 [Compound B, (S)-1-(methylsulfonyl)-N-(4-(methylthio)-1-oxo-1-((4-(3-(pyridin-4-yl)phenyl)thiazol-2-yl)amino)butan-2-yl)-1H-pyrrole-3-carboxamide]
- growth inhibition of parental cell line (parental MP41 cells): strong growth inhibition
- growth inhibition in the uveal melanoma cell lines [1]: potent growth inhibition
- onset of growth inhibition versus the clinical PKC and MEK inhibitors [2]: faster onset of growth inhibition
- growth inhibition of uveal melanoma cells versus the clinical PKC and MEK inhibitors ([2]; 3 days, 0 to 10 micromolar): more potent effects on growth inhibition
- sensitivity of PKCi-resistant cells versus the parental MP41 cells ([3]; FIG. 7B): more sensitive
- growth inhibition of PKCi-resistant cell line ([3]; FIG. 7B, 7-day assay): strong growth inhibition

Structure (SMILES): C[C@@H]1CN(c2cccc(-c3csc(NC(=O)CNC(=O)c4ccn(C(C)(C)C)c4)n3)n2)C[C@H](C)O1 [Compound C, 1-(tert-butyl)-N-(2-((4-(6-(cis-2,6-dimethylmorpholino)pyridin-2-yl)thiazol-2-yl)amino)-2-oxoethyl)-1H-pyrrole-3-carboxamide]
- tolerability, body weight [4]: well tolerated with no body weight loss observed

Structure (SMILES): CSCC[C@H](NC(=O)c1ccc(N)cc1)C(=O)Nc1nc(-c2cccc(-c3ccncc3)c2)cs1 [Compound A]
- onset of inhibition versus the clinical PKC and MEK inhibitors [5]: faster onset of inhibition
- growth inhibition of uveal melanoma cells versus the clinical PKC and MEK inhibitors ([5]; 3 days, 0 to 10 micromolar): comparable growth inhibition

Structure (SMILES): CC1(N)CCN(c2cccnc2NC(=O)c2nc(-c3ncccc3C(F)(F)F)cnc2N)CC1 [LXS196, reference compound]
- tolerance of PKCi-resistant cells versus the parental MP41 cell line ([3]; FIG. 7A): could tolerate growth at higher concentrations
